From patent US10202379B2, “Substituted polycyclic carbamoyl pyridone derivative prodrug” (priority 2010, dated 2019) come the findings set out here.

Molecules are shown by their SMILES. pEC50, pIC50: −log10 of the molar value. Read-outs that look alike come from different tables or passages of the source.

The target in data set [1] is Cap-dependant Endonuclease (CEN) (RNP fraction, PB1-PB2-PA complex) (Influenza A virus (strain A/Wilson-Smith/1933 H1N1) (Influenza A virus (strain A/WS/1933 H1N1)), UniProt P15659). It counts as biochemical, influenza A/WSN/33 virus.
Data set [2] is described as follows: BA test (oral absorbability). The format is in vivo. The conditions noted are these: rat; for Parent compound BA(%): oral administration of parent compound; for plasma concentration of the prodrug itself: oral administration, non-fasting, all plasma samples. The method, then: Experimental Material and Method for Studying Oral Absorbability
(1) Animal to be used: A mouse or rat was used.
(2) Rearing conditions: Mouse and rat ingested a solid feed and sterilized tap water ad-libitum.
(3) Dose and setting of grouping: A predetermined dose was administered orally or intravenously. A group was set as follows. (a dose varied for every compound)
Oral administration 1 to 30 mg/kg (n=2 to 3)
Intravenous administration 0.5 to 10 mg/kg (n=2 to 3)
(4) Preparation of administration solution: For oral administration, a solution or suspension was administered. For intravenous administration, a compound which was solubilized was administered.
(5) Administration method: For oral administration, the administration solution was forcibly administered to the stomach by oral sonde. For intravenous administration, the administration solution was administered with a syringe equipped with an injection needle through a tail vein.
(6) Assessment item: Blood was collected with time, and a plasma drug concentration was measured using LC/MS/MS.
(7) Statistical analysis: Regarding plasma concentration transition, an area under a plasma concentration-time curve (AUC) was calculated using a non-linear minimum square method program WinNonlin (registered trademark), and bioavailability (BA) was calculated from AUC of an oral-administered group and an intervenous-administered group.

Another data set has as its system influenza virus. Briefly: microbe, parasite or virus in culture. The format is cell-based. The conditions noted are these: unidentified influenza virus, 72 h, read-out: CPE EC50, parent compounds (Reference examples); MDBK or MDCK cells, 3 days, WST-8. A general note: Tetrazolium dyes change colour on reduction, which living cells bring about.
The subject of data set [3] is influenza virus (A/WS/33, A/Victoria/3/75 or B/Maryland/1/59). It counts as in vivo. Particulars: oral, infected mouse, 14 days after virus infection.
Setting [4] is: parent compounds (Reference examples), room temperature, 60 minutes.

With `C[C@@H](N1CN([C@H]2c3cccc(F)c3CSc3c(Cl)cccc32)n2ccc(=O)c(O)c2C1=O)C(F)(F)F` [Reference example 594], in data set [1], the pIC50 was 7.96. For the same molecule, in data set [2], the “Parent compound BA(%)” value stood at 5.0%. Moreover, the negative-log EC50 (pEC50) in the data set on influenza virus was 8.40.

Turning to `C[C@@H](N1CN([C@@H]2c3ccccc3SCc3c(F)cccc32)n2ccc(=O)c(O)c2C1=O)C(F)(F)F` [Reference example 445], the pIC50 in data set [1] (setting [4]) was 7.89. Further, the “Parent compound BA(%)” value in data set [2] is recorded as 12.1%. Also, the pEC50 in the data set on influenza virus was 8.40.

As for `CC(=O)OCOc1c2n(ccc1=O)N(C1c3ccccc3CSc3ccccc31)CN(C(C)C)C2=O` (centres unmarked) [Example 114], the “plasma concentration of the prodrug itself” value in data set [2] is recorded as “a determination limit or less”.

Take `C[C@@H](N1CN([C@@H]2c3ccccc3SCc3cccc(Cl)c32)n2ccc(=O)c(O)c2C1=O)C(F)(F)F` [Reference example 429]: the “Parent compound BA(%)” value in data set [2] worked out at 13.3%. For the same molecule, the negative logarithm of the EC50 (pEC50) with influenza virus is 8.40.

Consider `CC(=O)Oc1c2n(ccc1=O)N(C1c3ccccc3CSc3ccccc31)CN(C(C)C)C2=O` (centres unmarked) [Example 204], for which the “plasma concentration of the prodrug itself” value in data set [2] is given as “a determination limit or less”.

For the molecule `CC(=O)Oc1c2n(ccc1=O)N([C@H]1c3ccccc3CSc3ccccc31)CN([C@H](C)C(F)(F)F)C2=O` [Example 20], the “ED50 of single dose (dose for 50% lethality inhibition)” value in data set [3] was found to be 4.4 mg/kg/day.

Take `CC(C)N1CN(C2c3ccccc3CSc3ccccc32)n2ccc(=O)c(O)c2C1=O` (centres unmarked) [Reference example 301]: the “Parent compound BA(%)” value in data set [2] is listed as 2.3%.

For the molecule `COc1cccc2c1CSc1ccccc1[C@H]2N1CN([C@H](C)C(F)(F)F)C(=O)c2c(O)c(=O)ccn21` [Reference example 600], the pIC50 in data set [1] (setting [4]) was 7.23. In addition, the pEC50 in the data set on influenza virus is 7.44.

As a reminder, the pIC50 is the negative decadic logarithm of the IC50, by convention in mol/L. The pEC50 is −log10 of the EC50, conventionally taken in molar units.
